Experiments:
[1] = Release of CBD from the infused silicone elastomer on water washes, TLC analysis; format: physicochemical; conditions: hydrolyzed sample and water washes compared to CBD isolate
Procedure: A solution was prepared by adding 5 g of the trisiloxanyl-cannabidiol product (IV) prepared in Example 3 and 5 g of n-propylheptamethyltrisiloxane (commercially available from Gelest) to a 20 ml vial. Sample 1 was prepared by inserting apiece of silicone elastomer (1.5 cm×2.5 cm, 0.35 g, commercially available from Gelest) into a 20 ml vial containing the solution and letting the vial sit with a closed lid for 30 minutes to absorb the solution into the elastomer. Sample 2 (control) was an identical piece of silicone elastomer which was inserted into a 20 ml vial containing hemp seed oil and let sit with a closed lid for 30 minutes to absorb the hemp oil into the elastomer.
Sample 1 was washed in water three consecutive times. For each wash, the sample was placed in a vial containing 10 g of DI water and shaken for 10 seconds. The water from each wash was collected and analyzed for the presence of CBD using a basic thin-layer chromatography (TLC) method using 20% ethyl acetate in hexanes. CBD isolate was compared to a hydrolyzed sample of trisiloxanyl-cannabidiol product (IV) as well as all three washes.

[2] = Solubility study in common oils, silicones and water; format: physicochemical
Description: It may be concluded that the CBD isolate was soluble in all oils and insoluble in all silicones and water. The CBD derivatives were insoluble in water and soluble in both oils and silicones (heating was required for the derivative of Example 1). […] Thus, the presence of the silicon-containing groups increased the solubility of CBD in all silicones tested.

With `C=C(C)[C@@H]1CCC(C)=C[C@H]1c1c(O)cc(CCCCC)cc1O[Si](C)(O[Si](C)(C)C)O[Si](C)(C)C` [Example 3, 2-[(1R,6R)-3-Methyl-6-(1-methylethenyl)-2-cyclohexen-1-yl]-5-pentyl-1-(bis(trimethylsiloxy)methylsiloxy)-3-ol-benzene] the “Hydrolysis to release CBD (TLC)” value [1] was “underwent hydrolysis to release CBD”.

With `C=C(C)[C@@H]1CCC(C)=C[C@H]1c1c(O)cc(CCCCC)cc1O` [CBD, 2-[(1R,6R)-3-methyl-6-(1-methylethenyl)-2-cyclohexen-1-yl]-5-pentyl-1,3-benzenediol, reference compound] the “Solubility in oils” value ([2]; all oils tested) was “soluble”, the “Solubility in silicones” value ([2]; all silicones tested) was “insoluble” and the “Solubility in water” value ([2]; water) was “insoluble”.

In the case of `CCCCCc1cc(O)c([C@H]2C=C(C)CC[C@H]2C(C)C[Si](C)(C)O[Si](C)(C)O[Si](C)(C)O[Si](C)(C)O[Si](C)(C)CCCC)c(O)c1` (stereo partly drawn) [Example 2, 2-[(1R,6R)-3-Methyl-6-(1-methyl-2-(1-butyl-1,1,3,3,5,5,7,7-octamethyltetrasiloxy-dimethylsilyl)ethyl)-2-cyclohexen-1-yl]-5-pentyl-1,3-benzenediol], the “Solubility in castor oil” value ([2]; castor oil, even with partial heating) is reported as “only partially soluble”.
